Test results taken from patent publication US9980936B2, “BH4 antagonists and methods related thereto” (Emory University, priority 2014, dated 2018).
“Also recorded” adds a separate entry of the source. Read-outs that look alike come from different tables or passages of the source.

What was measured:
H460 cells [1] = assay: H460 cells: Bcl2/BH3 immunofluorescence, Bcl2 expression, mitochondrial dysfunction; assay type: cell-based
[2] = target: purified, human Bcl2 protein (Homo sapiens, UniProt P10415); assay: competition fluorescence polarization assay (FITC-QDCMWSGFSA peptide); assay type: binding; conditions: 3 nM peptide, 6 nM Bcl2
Protocol: Thus, the change of mP reflects the interaction between the fluorescent-labeled peptide and the Bcl2 protein. Data (i.e. mP value) can be imported into Prism 3.0 to determine the dissociation constant (Kd) and the binding range for each peptide.
This interaction between Bcl2 and the peptide forms the basis for the fluorescence polarization assay.
The plate was mixed on a shaker for 1 min and incubated at room temperature for an additional 15 min. The polarization, as defined as mP units, was measured at room temperature with a fluorescence microplate reader (Wallace, Calif.). A negative control (DMSO, 3 nM peptide and assay buffer) and a positive control (DMSO, 3 nM peptide, 6 nM Bcl2 and assay buffer) were used to determine the range of the assay.

Mc1-1 = Mc1-1 (Homo sapiens, UniProt Q07820); assay: binding to other Bcl2 family members
[3] = target: T1, Bcl2 mutant D10A/N11A/R12A/E13A (AAAA) (Homo sapiens, UniProt P10415, D10A/E13A/N11A/R12A); assay: competitive fluorescence polarization, compound BH4 mutant; assay type: binding
T1 construct: made in house
Text: A panel of Bcl2 mutants were generated within the BH4 domain at the specific residues that were identified by the initial docking simulations, including D10A, N11A, R12A, E13A, M16A, K17A, H20A and D31A Bcl2 mutants. A compound Bcl2 mutant D10A/N11A/R12A/E13A (AAAA) was created. Recombinant proteins of these mutants were generated for BDA-2/Bcl2 binding analysis using a competitive fluorescence polarization. […] Second, WT and all Bcl2 mutants were exogenously overexpressed in H1299 cells that express undetectable levels of endogenous Bcl2.

[4] = tested on: H1299 cells or isolated mitochondria; assay: H1299 cells or isolated mitochondria expressing WT, ΔBH3 Bcl2 or vector: IP and Cyt c release; assay type: cell-based
Protocol: (§1) To further test whether the BH3 domain of Bcl2 is important for BDA-366 activation of Bax, purified recombinant WT and the BH3 deletion (ΔBH3) mutant Bcl2 proteins were incubated with purified Bax protein in the absence or presence of BDA-366, followed by IP with 6A7 antibody. […] To test this at the cellular or mitochondrial level, WT, ΔBH3 Bcl2 mutant and empty vector (pCIneo) were transfected into H1299 cells that express undetectable levels of endogenous Bcl2 but high levels of endogenous Bax. Cells or isolated mitochondria from these cells were treated with BDA-2, followed by IP with Bcl2 BH3 or 6A7 antibody, respectively.
To further test whether BDA-366 induces Cyt c release from mitochondria in a Bcl2 dependent fashion, mitochondria were isolated from H1299 cells expressing WT, ΔBH3 mutant Bcl2 or vector-only control. The isolated mitochondria were treated with BDA-366 (1 μM) for 30 min at 30° C. After centrifugation, Cyt c in the supernatant (i.e. Cyt c release) was analyzed by Western blot.

H460 cells [5] = assay: autophagy (LC3-II, GFP-LC3); assay type: cell-based
Protocol: Bcl2 directly interacts with Beclin-1 and suppresses Beclin-1-dependent autophagy. Inhibition of Bcl2 by ABT-737 not only induces apoptosis but also autophagy. […] To test whether disruption of Bcl2 BH4 by BDA-2 stimulates autophagy, H460 cells were treated with BDA-366 (1 μM) for 24 h. […] To further quantify the level of autophagy, a GFP-LC3 construct was used to indicate autophagosomes.

purified recombinant Bax = assay: cell-free Bax activation (IP using 6A7 Bax antibody); assay type: biochemical
Protocol: BDA-366-induced Bcl2 conformational change was also confirmed by immunofluorescence using a Bcl2/BH3-domain specific antibody. […] To test this possibility, a 6A7 Bax antibody that only recognizes the conformationally changed, active, form of Bax was employed. Purified Bcl2 was treated with BDA-366 in lysis buffer for 1 h. The mixture of Bcl2/BDA-2 was then incubated with purified recombinant Bax for another 2 h, followed by IP using 6A7 antibody.
as §1

[6] = tested on: H460 or DMS53 cells expressing Bcl2 shRNA transfected with WT Bcl2; assay: rescue of Bcl2-silenced cells with exogenous WT Bcl2; assay type: cell-based; conditions: 72 h
Text: (§2) Whether expression of exogenous Bcl2 can restore the sensitivity of Bcl2-silenced lung cancer cells to BDA-2 and whether the BDA-2/BH4 binding is important for such effect was examined. WT and BDA-2 binding deficient D10A/N11A/R12A/E13A (AAAA) Bcl2 mutant cDNA in pCIneo or vector-only control were transfected into H460 or DMS53 cells expressing Bcl2 shRNA. It has been reported that if the shRNA is directed to the 3′ UTR or 5′ UTR of the gene, the effect of the shRNA1 can be rescued by ectopically expressing the protein using the wild-type or mutant cDNA. Because Bcl2 shRNA1 targets the 5′UTR of endogenous Bcl2, the silencing effect of shRNA1 on Bcl2 expression could be rescued by transfection of exogenous WT or AAAA Bcl2 mutant. After transfection, cells were treated with BDA-2 or the BH3 mimetic ABT-199 at the indicated concentrations for 72 h. […] The apoptotic effect of BDA-2 on lung cancer cells requires its BH4 binding.

[7] = tested on: H460 or DMS53 cells expressing Bcl2 shRNA transfected with AAAA Bcl2 mutant; assay: rescue of Bcl2-silenced cells with AAAA Bcl2 mutant; assay type: cell-based; conditions: 72 h
Text: as §2

H460 cells [8] = assay: co-IP of Bcl2 with Bax and Bim; assay type: cell-based
Protocol: To test whether BDA-366-induced Bcl2 conformational change increases interaction between Bcl2 and Bax in cells, co-IP experiments were performed following treatment of H460 cells with BDA-366.

Plasmid pUC19 DNA = assay: electrophoretic mobility shift assay (EMSA); assay type: binding
Protocol: To test whether BDA-2 reacts with DNA as a crosslinker, electrophoretic mobility shift assay (EMSA) was performed. Cisplatin, a known DNA binding agent, was used as positive control. Plasmid pUC19 DNA was incubated with BDA-2 or cisplatin.

Bfl-1/A1 = Bfl-1/A1 (Homo sapiens, UniProt Q16548); assay: binding to other Bcl2 family members
[9] = tested on: PDX obtained from a patient with refractory SCLC; assay: patient-derived xenografts (PDX) of refractory SCLC; assay type: in vivo, Mice; conditions: 20 mg/kg/d i.p., 2 weeks
Protocol: Mice carrying xenografts derived from a patient with refractory SCLC were treated with BDA-366 (20 mg/kg/d) via i.p. for 2 weeks.
To evaluate the anti-tumor activity of BDA-2 against SCLC in vivo, patient-derived xenografts (PDX) were established without intervening in vitro culture, which are expected to better recapitulate the SCLC tumor setting.

[10] = tested on: H460, H157, DMS53, DMS153 and H146 cells expressing Bcl2 shRNA; assay: apoptotic cell death (Annexin-V/PI, FACS) after Bcl2 shRNA knock-down; assay type: cell-based; conditions: 1 μM, 72 h
Protocol: To determine whether Bcl-2 is the relevant target at the cellular level and whether cell killing is truly dependent on this particular mechanism, Bcl2 was specifically knocked down using three different Bcl2 shRNAs that target different regions in Bcl2 gene in five lung cancer cell lines, including two NSCLC cell lines (H460 and H157) and three SCLC cell lines (DMS53, DMS153 and H146). […] Cells expressing Bcl2 shRNA1, shRNA2, shRNA3 or control shRNA were treated with BDA-2 (1 μM) for 72 h. The level of apoptotic cell death was determined by analysis of Annexin-V/PI binding by FACS.

Chain of Mc1-1 (Q07820 whole entry): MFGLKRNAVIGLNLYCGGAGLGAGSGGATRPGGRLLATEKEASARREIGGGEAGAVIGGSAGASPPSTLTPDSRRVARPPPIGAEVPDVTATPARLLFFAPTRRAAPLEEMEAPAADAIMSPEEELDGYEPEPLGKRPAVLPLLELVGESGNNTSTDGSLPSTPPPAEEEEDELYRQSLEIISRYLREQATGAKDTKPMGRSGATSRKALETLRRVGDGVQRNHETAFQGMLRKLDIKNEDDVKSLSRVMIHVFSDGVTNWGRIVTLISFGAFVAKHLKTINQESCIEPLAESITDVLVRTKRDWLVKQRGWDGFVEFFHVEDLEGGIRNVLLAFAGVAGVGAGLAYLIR
Chain of Bfl-1/A1 (Q16548 whole entry): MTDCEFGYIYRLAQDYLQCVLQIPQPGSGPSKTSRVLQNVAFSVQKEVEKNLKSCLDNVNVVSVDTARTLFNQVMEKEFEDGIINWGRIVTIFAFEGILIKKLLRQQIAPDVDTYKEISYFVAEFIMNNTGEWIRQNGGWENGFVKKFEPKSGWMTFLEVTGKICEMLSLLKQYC
Chain of purified, human Bcl2 protein (P10415 whole entry): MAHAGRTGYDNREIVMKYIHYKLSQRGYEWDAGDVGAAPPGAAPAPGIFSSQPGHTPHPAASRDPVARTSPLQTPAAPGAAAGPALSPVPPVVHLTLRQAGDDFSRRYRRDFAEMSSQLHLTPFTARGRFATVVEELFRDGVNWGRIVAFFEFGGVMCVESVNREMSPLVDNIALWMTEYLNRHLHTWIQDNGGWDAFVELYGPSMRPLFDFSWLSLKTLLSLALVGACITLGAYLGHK
T1 sequence (P10415 whole entry D10A/N11A/R12A/E13A): as the sequence (P10415 whole entry) above, with D10A, N11A, R12A, E13A counted along it

SMILES: CCN(CC)CC(O)CNc1ccc(NCC2CO2)c2c1C(=O)c1ccccc1C2=O (stereo not shown) [BDA-366, 1-((3-(diethylamino)-2-hydroxypropyl)amino)-4-((oxiran-2-ylmethyl)amino)anthracene-9,10-dione]
- Bcl2 expression level (H460 cells [1]): did not significantly affect Bcl2 expression level
- Bcl2 immunofluorescence with Bcl2/BH3-domain specific antibody (H460 cells [1]): enhanced significantly
- mitochondrial dysfunction and apoptosis (H460 cells [1]; MitoSOX red staining, Cyt c release, PARP cleavage): resulted in mitochondrial dysfunction
- Ki [2]: 0.93 ± 0.08 nM
- binding to Mc1-1 (Mc1-1): failed to bind
- binding to Mc1-1 (Mc1-1; listed as BDA-2): did not bind
- binding to AAAA Bcl2 mutant protein [3]: remarkably decreased BDA-2 binding
- Cyt c release from isolated mitochondria ([4]; WT Bcl2, 1 μM, 30 min at 30° C.): induced Cyt c release
- Bcl2 conformational change and Bax activation ([4]; cells or isolated mitochondria containing WT Bcl2): induced Bcl2 conformational change in association with Bax activation
- Bcl2 conformational change and Bax activation ([4]; ΔBH3 Bcl2 mutant or vector-only control): not
- levels of LC3-II (H460 cells [5]; 1 μM, 24 h): Increased levels of LC3-II
- percentage of GFP-LC3vac cells (H460 cells [5]; compared to DMSO control): significantly increases
- Bax binding to 6A7 antibody induced by compound-treated Bcl2 (purified recombinant Bax; Bcl2 treated 1 h, then Bax 2 h): enhanced the ability of Bax to bind to 6A7 antibody
- Bax activation by WT Bcl2 in the presence of compound (purified recombinant Bax; WT Bcl2): can activate Bax via 6A7 conformational change
- direct activation of Bax (purified recombinant Bax; without Bcl2): not a direct Bax activator
- Bax activation by ΔBH3 mutant Bcl2 in the presence of compound (purified recombinant Bax; ΔBH3 mutant Bcl2): not
- sensitivity of cells after expression of exogenous WT Bcl2 [6]: restored sensitivity
- sensitivity of cells restored after expression of AAAA Bcl2 [7]: not
- Bcl2/Bax interaction (H460 cells [8]): enhanced Bcl2/Bax interaction
- Bcl2/Bim binding (H460 cells [8]): decreased Bcl2/Bim binding
- binding to pUC19 DNA causing mobility shift (Plasmid pUC19 DNA): not
- binding to Bfl-1/A1 (Bfl-1/A1): failed to bind
- binding to Bfl-1/A1 (Bfl-1/A1; listed as BDA-2): did not bind
- growth of SCLC PDX [9]: effectively suppressed the growth of PDX; also recorded: potently suppressed the growth of the SCLC PDX; also recorded: represses tumor growth in xenografts derived from SCLC patient
- sensitivity (apoptotic cell death) after depletion of endogenous Bcl2 [10]: significantly reduced sensitivity
